In patent US10799507B2, “5-(7H-pyrrolo[2,3-d]pyrimidin-4-yl)-5-azaspiro[2.5]octane-8-carboxylic acid derivatives as novel JAK kinase inhibitors” (LEO Pharma A/S, priority 2017, dated 2020):

Key:
[1] = target: JAK1 (Homo sapiens (Human), UniProt P23458); assay: JAK kinase assay (HTRF), JAK1; assay type: biochemical; settings: catalytic domain, ATP at Km (7 μM)
How it was run: (§1)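 Catalytic-domain human JAK1 (GST-tagged, aa 850-1154) or His-tagged JAK2, baculovirus-expressed, phosphorylated 1 µM biotinylated TK peptide at Km ATP (JAK1 7 µM, 10 mM MgCl2, 50 nM SEB; JAK2 4 µM, 5 mM MgCl2) in pH 7.0 Hepes, 20-30 min RT. EDTA stop; overnight streptavidin-XL665/cryptate HTRF read.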

[2] = target: JAK2 (Homo sapiens (Human), UniProt O60674); assay: JAK kinase assay (HTRF), JAK2; assay type: biochemical; settings: catalytic domain, ATP at Km (4 μM)
How it was run: as §1

[3] = target: JAK3 (Homo sapiens (Human), UniProt P52333); assay: JAK kinase assay (HTRF), JAK3; assay type: biochemical; settings: catalytic domain, ATP at Km (2 μM)
How it was run: (§2)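 Catalytic-domain human kinases, GST-tagged TYK2 (aa 871-1187) and His-tagged JAK3, phosphorylate 1 μM TK Substrate-Biotin for 20-30 min at RT in 50 mM Hepes pH 7.0, 5 mM MgCl2, ATP at Km (TYK2 13 μM with 50 nM SEB; JAK3 2 μM). Phosphorylation detected by HTRF.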

[4] = target: TYK2 (Homo sapiens (Human), UniProt P29597); assay: JAK kinase assay (HTRF), TYK2; assay type: biochemical; settings: catalytic domain, ATP at Km (13 μM)
How it was run: as §2

[5] = in vitro metabolic stability in human liver microsomes; assay type: in vitro ADME; settings: 0.5 μM compound, 0.5 mg/mL microsomes, NADPH, 40 min, 37° C.; for CLint scaled at 0.5 μM: human, liver microsomes, read-out: Human liver microsome Clapp (apparent intrinsic clearance)
Protocol: To assess the in vitro metabolic stability, the compounds (0.5 μM) were incubated in duplicates with human liver microsomes (0.5 mg/mL) in phosphate buffer and NADPH, in 96-well plates for 40 min (37° C.), using a liquid handling robot (Hamilton Microlab Star). Sample aliquots were taken at 0, 5, 10, 20 and 40 min, and dispensed into cold acetonitrile, in order to stop the reactions. The plates were centrifuged for 30 minutes before the samples were analyzed using liquid chromatography coupled to a time-of-flight mass spectrometer (AB Sciex API5600). The compound depletion over time was used to estimate the elimination rate constant, from which the apparent intrinsic clearance, Clapp, was calculated and the values are listed in Table 2.

TYK2, sequence (P29597 871-1187): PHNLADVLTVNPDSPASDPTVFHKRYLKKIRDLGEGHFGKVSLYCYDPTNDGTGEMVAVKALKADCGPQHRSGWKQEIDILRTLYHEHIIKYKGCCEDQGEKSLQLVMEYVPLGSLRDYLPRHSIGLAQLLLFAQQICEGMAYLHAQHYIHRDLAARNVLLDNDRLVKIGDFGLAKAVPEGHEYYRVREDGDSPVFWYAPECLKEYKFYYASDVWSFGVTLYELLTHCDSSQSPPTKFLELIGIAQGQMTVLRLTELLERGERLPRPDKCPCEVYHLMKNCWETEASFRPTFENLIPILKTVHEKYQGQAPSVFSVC
JAK3, sequence (P52333 822-1111): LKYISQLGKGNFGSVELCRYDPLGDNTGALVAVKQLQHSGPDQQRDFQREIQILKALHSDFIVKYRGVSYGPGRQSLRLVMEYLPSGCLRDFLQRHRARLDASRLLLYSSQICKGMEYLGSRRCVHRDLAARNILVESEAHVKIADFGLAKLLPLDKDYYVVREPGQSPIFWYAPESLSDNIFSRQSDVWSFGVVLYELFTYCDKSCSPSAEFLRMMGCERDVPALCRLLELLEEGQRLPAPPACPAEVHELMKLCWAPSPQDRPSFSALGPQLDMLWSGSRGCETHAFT
JAK1, sequence (P23458 850-1154): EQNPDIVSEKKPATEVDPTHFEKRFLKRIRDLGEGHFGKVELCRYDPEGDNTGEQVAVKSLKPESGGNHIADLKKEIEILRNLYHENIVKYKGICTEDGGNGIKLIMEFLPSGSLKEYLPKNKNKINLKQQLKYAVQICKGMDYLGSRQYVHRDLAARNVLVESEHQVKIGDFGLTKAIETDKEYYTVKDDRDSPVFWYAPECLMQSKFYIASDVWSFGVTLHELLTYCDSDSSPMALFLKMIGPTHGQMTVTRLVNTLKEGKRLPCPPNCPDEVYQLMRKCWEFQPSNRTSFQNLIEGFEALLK
JAK2, sequence (O60674 849-1124): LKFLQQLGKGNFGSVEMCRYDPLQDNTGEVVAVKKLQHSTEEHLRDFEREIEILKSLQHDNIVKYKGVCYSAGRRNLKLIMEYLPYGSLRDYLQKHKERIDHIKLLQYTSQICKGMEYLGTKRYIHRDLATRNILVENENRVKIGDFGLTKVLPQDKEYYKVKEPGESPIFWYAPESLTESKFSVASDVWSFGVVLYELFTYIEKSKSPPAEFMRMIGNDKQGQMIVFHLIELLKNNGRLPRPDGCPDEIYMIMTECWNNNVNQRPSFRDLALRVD

| Structure (SMILES) | EC50 [1] [µM] | EC50 [2] [µM] | EC50 [3] [µM] | EC50 [4] [µM] | CLint scaled at 0.5 μM [5] [mL/min/kg] | Human liver microsome Clapp (apparent intrinsic clearance) [5] [mL/min/kg] |
| --- | --- | --- | --- | --- | --- | --- |
| O=C(N[C@@H](CO)[C@H](O)c1ccc(F)cn1)[C@H]1CCN(c2ncnc3[nH]ccc23)CC12CC2 (single isomer, unassigned) [Example 30] | 0.0014 | 0.0024 | 0.0271 | 0.0305 | 50 | – |
| Cc1cc([C@@H](O)CNC(=O)[C@H]2CCN(c3ncnc4[nH]ccc34)CC23CC3)ncc1F (single isomer, unassigned) [Example 110] | 0.0111 | 0.0263 | 0.0753 | 0.188 | 195 | – |
| O=C(NC[C@@H](O)C1CCCC1)[C@H]1CCN(c2ncnc3[nH]ccc23)CC12CC2 [Example 1, (8S)-N-[(2S)-2-cyclopentyl-2-hydroxy-ethyl]-5-(7H-pyrrolo[2,3-d]pyrimidin-4-yl)-5-azaspiro[2.5]octane-8-carboxamide] | 0.0005 | 0.001 | 0.0033 | 0.0036 | – | 190 |
| O=C(NCC(O)C1CCCCC1)[C@H]1CCN(c2ncnc3[nH]ccc23)CC12CC2 (stereo partly drawn) [Example 2, (8S)-N-(2-cyclohexyl-2-hydroxy-ethyl)-5-(7H-pyrrolo[2,3-d]pyrimidin-4-yl)-5-azaspiro[2.5]octane-8-carboxamide] | 0.0005 | 0.0013 | 0.0037 | 0.0046 | > 200 | – |
| C[C@H](NC(=O)[C@H]1CCN(c2ncnc3[nH]ccc23)CC12CC2)[C@@H](O)C1CCCCC1 [Example 3, (8S)-N-[(1S,2S)-2-cyclohexyl-2-hydroxy-1-methyl-ethyl]-5-(7H-pyrrolo[2,3-d]pyrimidin-4-yl)-5-azaspiro[2.5]octane-8-carboxamide] | 0.0005 | 0.0011 | 0.0034 | 0.0062 | > 200 | – |
| O=C(NC[C@@H](O)C1CCCCC1)[C@H]1CCN(c2ncnc3[nH]ccc23)CC12CC2 [Example 4, (8S)-N-[(2S)-2-cyclohexyl-2-hydroxy-ethyl]-5-(7H-pyrrolo[2,3-d]pyrimidin-4-yl)-5-azaspiro[2.5]octane-8-carboxamide] | 0.0005 | 0.0012 | 0.0034 | 0.004 | > 200 | – |
| C[C@H](NC(=O)[C@H]1CCN(c2ncnc3[nH]ccc23)CC12CC2)[C@@H](O)C1CCCC1 [Example 5, (8S)-N-[(1S,2S)-2-cyclopentyl-2-hydroxy-1-methyl-ethyl]-5-(7H-pyrrolo[2,3-d]pyrimidin-4-yl)-5-azaspiro[2.5]octane-8-carboxamide] | 0.0006 | 0.0011 | 0.0023 | 0.0063 | > 200 | – |
| C[C@H](NC(=O)[C@H]1CCN(c2ncnc3[nH]ccc23)CC12CC2)[C@@H](O)c1ccc(F)cc1 [Example 6, (8S)-N-[(1S,2S)-2-(4-fluorophenyl)-2-hydroxy-1-methyl-ethyl]-5-(7H-pyrrolo[2,3-d]pyrimidin-4-yl)-5-azaspiro[2.5]octane-8-carboxamide] | 0.0006 | 0.0014 | 0.0074 | 0.007 | > 200 | – |
| N#Cc1ccc(CNC(=O)C2CCN(c3ncnc4[nH]ccc34)CC23CC3)nc1 (stereo not drawn) [Example 76, N-[(5-cyano-2-pyridyl)methyl]-5-(7H-pyrrolo[2,3-d]pyrimidin-4-yl)-5-azaspiro[2.5]octane-8-carboxamide] | 0.0062 | 0.0433 | 0.0536 | – | 139 | – |
| O=C(NCC1(CO)CC(F)(F)C1)[C@H](O)CNC(=O)[C@H]1CCN(c2ncnc3[nH]ccc23)CC12CC2 [Example 129, (8S)-N-[(2R)-3-[[3,3-difluoro-1-(hydroxymethyl)cyclobutyl]methylamino]-2-hydroxy-3-oxo-propyl]-5-(7H-pyrrolo[2,3-d]pyrimidin-4-yl)-5-azaspiro[2.5]octane-8-carboxamide] | 0.0212 | 0.0376 | 0.0411 | 0.385 | – | – |
| O=C(N[C@H](CO)C1CCCCC1)[C@H]1CCN(c2ncnc3[nH]ccc23)CC12CC2 [Example 132, (8S)-N-[(1S)-1-cyclohexyl-2-hydroxy-ethyl]-5-(7H-pyrrolo[2,3-d]pyrimidin-4-yl)-5-azaspiro[2.5]octane-8-carboxamide] | 0.0253 | 0.0945 | 0.162 | 0.665 | – | – |
| Cc1cc([C@@H](O)[C@H](C)NC(=O)[C@H]2CCN(c3ncnc4[nH]ccc34)CC23CC3)ncc1F [Example 133, (8S)-N-[(1S,2S)-2-(5-fluoro-4-methyl-2-pyridyl)-2-hydroxy-1-methyl-ethyl]-5-(7H-pyrrolo[2,3-d]pyrimidin-4-yl)-5-azaspiro[2.5]octane-8-carboxamide] | 0.0273 | 0.0375 | 0.148 | 0.375 | – | – |
| O=C(N[C@H](CO)c1ccccn1)[C@H]1CCN(c2ncnc3[nH]ccc23)CC12CC2 [Example 135, (8S)-N-[(1S)-2-hydroxy-1-(2-pyridyl)ethyl]-5-(7H-pyrrolo[2,3-d]pyrimidin-4-yl)-5-azaspiro[2.5]octane-8-carboxamide] | 0.0332 | 0.0838 | 0.148 | 0.466 | – | – |
| C[C@@H](NC(=O)C1CCN(c2ncnc3[nH]ccc23)CC12CC2)c1ccccc1 (stereo partly drawn) [Example 136, N-[(1R)-1-phenylethyl]-5-(7H-pyrrolo[2,3-d]pyrimidin-4-yl)-5-azaspiro[2.5]octane-8-carboxamide] | 0.0338 | 0.0551 | 0.111 | 1.46 | – | – |
| O=C(N[C@@H](CO)Cc1ccccc1)C1CCN(c2ncnc3[nH]ccc23)CC12CC2 (stereo partly drawn) [Example 137, N-[(1R)-1-benzyl-2-hydroxy-ethyl]-5-(7H-pyrrolo[2,3-d]pyrimidin-4-yl)-5-azaspiro[2.5]octane-8-carboxamide] | 0.038 | 0.0305 | 0.0916 | 1.38 | – | – |
| O=C(OCc1ccccc1)[C@H](CO)NC(=O)[C@H]1CCN(c2ncnc3[nH]ccc23)CC12CC2 [Example 138, Benzyl (2S)-3-hydroxy-2-[[(8S)-5-(7H-pyrrolo[2,3-d]pyrimidin-4-yl)-5-azaspiro[2.5]octane-8-carbonyl]amino]propanoate] | 0.0382 | 0.112 | 0.0909 | 1.1 | – | – |
| O=C(N[C@H](CO)Cc1ccccc1)C1CCN(c2ncnc3[nH]ccc23)CC12CC2 (stereo partly drawn) [Example 141, N-[(1S)-1-benzyl-2-hydroxy-ethyl]-5-(7H-pyrrolo[2,3-d]pyrimidin-4-yl)-5-azaspiro[2.5]octane-8-carboxamide] | 0.0412 | 0.0816 | 0.052 | 4.16 | – | – |
| N#Cc1ccc(CNC(=O)[C@@H]2CCN(c3ncnc4[nH]ccc34)CC23CC3)cc1 [Example 145, (8R)-N-[(4-cyanophenyl)methyl]-5-(7H-pyrrolo[2,3-d]pyrimidin-4-yl)-5-azaspiro[2.5]octane-8-carboxamide] | 0.0644 | 0.251 | 0.176 | 5.74 | – | – |
| C[C@@H](NC(=O)[C@H]1CCN(c2ncnc3[nH]ccc23)CC12CC2)[C@@H](O)c1ccc(C#N)cc1 [Example 146, (8S)-N-[(1R,2S)-2-(4-cyanophenyl)-2-hydroxy-1-methyl-ethyl]-5-(7H-pyrrolo[2,3-d]pyrimidin-4-yl)-5-azaspiro[2.5]octane-8-carboxamide] | 0.0677 | 0.188 | 0.266 | 1.84 | – | – |
| O=C(N[C@H](CO)C1CCC1)[C@H]1CCN(c2ncnc3[nH]ccc23)CC12CC2 [Example 147, (8S)-N-[(1S)-1-cyclobutyl-2-hydroxy-ethyl]-5-(7H-pyrrolo[2,3-d]pyrimidin-4-yl)-5-azaspiro[2.5]octane-8-carboxamide] | 0.0681 | 0.121 | 0.162 | 0.914 | – | – |
| O=C(N[C@@H](CO)C1CCC1)[C@H]1CCN(c2ncnc3[nH]ccc23)CC12CC2 [Example 148, (8S)-N-[(1R)-1-cyclobutyl-2-hydroxy-ethyl]-5-(7H-pyrrolo[2,3-d]pyrimidin-4-yl)-5-azaspiro[2.5]octane-8-carboxamide] | 0.0706 | 0.139 | 0.163 | 1.08 | – | – |
| O=C(OCC1(CO)CCCCC1)[C@H]1CCN(c2ncnc3[nH]ccc23)CC12CC2 [Example 161, [1-(hydroxymethyl)cyclohexyl]methyl (8S)-5-(7H-pyrrolo[2,3-d]pyrimidin-4-yl)-5-azaspiro[2.5]octane-8-carboxylate] | – | – | – | – | > 200 | – |
